In ChEMBL document CHEMBL1138130, “Synthesis and antibacterial activity of 3-O-acyl-6-O-carbamoyl erythromycin A derivatives” (2006):
In brackets after ≈: the same amount, converted by molar mass.

Columns and labels:
Assay type in all cases: functional
Staphylococcus aureus = test: Antibacterial activity against Staphylococcus aureus OC4172
Streptococcus pneumoniae [1] = test: Antibacterial activity against Streptococcus pneumoniae OC9132
Streptococcus pneumoniae [2] = test: Antibacterial activity against erm(B) ribosomal methylase gene containing Streptococcus pneumoniae OC4051
Streptococcus pneumoniae [3] = test: Antibacterial activity against Mef(A) efflux pump containing Streptococcus pneumoniae OC4438
Haemophilus influenzae = test: Antibacterial activity against Haemophilus influenzae OC4882

Row | SMILES | MIC (Staphylococcus aureus) [µg/mL] | MIC (Streptococcus pneumoniae [1]) [µg/mL] | MIC (Streptococcus pneumoniae [2]) [µg/mL] | MIC (Streptococcus pneumoniae [3]) [µg/mL] | MIC (Haemophilus influenzae) [µg/mL]
1 | CC[C@H]1OC(=O)[C@H](C)[C@@H](OC(=O)N2CCCC2)[C@H](C)[C@@H](O[C@@H]2O[C@H](C)C[C@H](N(C)C)[C@H]2O)[C@](C)(OC(=O)NC/C=C/c2ccc(-c3ncccn3)cc2)C[C@@H](C)C(=O)[C@H](C)[C@H]2NC(=O)O[C@@]21C | 0.5 (≈ 0.535 µM) | 0.06 (≈ 0.0642 µM) | 0.25 (≈ 0.267 µM) | 0.12 (≈ 0.128 µM) | 16 (≈ 17.1 µM)
2 | CC[C@H]1OC(=O)[C@H](C)C(=O)[C@H](C)[C@@H](O[C@@H]2O[C@H](C)C[C@H](N(C)C)[C@H]2O)[C@](C)(OC(=O)NC/C=C/c2ccc(-c3ncccn3)cc2)C[C@@H](C)C(=O)[C@H](C)[C@H]2NC(=O)O[C@@]21C | 0.12 (≈ 0.144 µM) | 0.03 (≈ 0.0359 µM) | 0.06 (≈ 0.0718 µM) | 0.25 (≈ 0.299 µM) | 4 (≈ 4.78 µM)
3 | CC[C@H]1OC(=O)[C@H](C)[C@@H](OC(=O)NC2CCCCC2)[C@H](C)[C@@H](O[C@@H]2O[C@H](C)C[C@H](N(C)C)[C@H]2O)[C@](C)(OC(=O)NC/C=C/c2ccc(-c3ncccn3)cc2)C[C@@H](C)C(=O)[C@H](C)[C@H]2NC(=O)O[C@@]21C | 1 (≈ 1.04 µM) | 0.12 (≈ 0.125 µM) | 4 (≈ 4.15 µM) | 0.25 (≈ 0.26 µM) | 16 (≈ 16.6 µM)
4 | CC[C@H]1OC(=O)[C@H](C)[C@@H](OC(=O)Cc2cccnc2)[C@H](C)[C@@H](O[C@@H]2O[C@H](C)C[C@H](N(C)C)[C@H]2O)[C@](C)(OC(=O)NC/C=C/c2cnc(C3CC3)nc2)C[C@@H](C)C(=O)[C@H](C)[C@H]2NC(=O)O[C@@]21C | 0.5 (≈ 0.543 µM) | 0.06 (≈ 0.0651 µM) | 0.25 (≈ 0.271 µM) | 0.25 (≈ 0.271 µM) | 2 (≈ 2.17 µM)
5 | CC[C@H]1OC(=O)[C@H](C)[C@@H](OC(=O)N(C)c2ccncc2)[C@H](C)[C@@H](O[C@@H]2O[C@H](C)C[C@H](N(C)C)[C@H]2O)[C@](C)(OC(=O)NC/C=C/c2ccc(-c3ncccn3)cc2)C[C@@H](C)C(=O)[C@H](C)[C@H]2NC(=O)O[C@@]21C | 1 (≈ 1.03 µM) | 0.06 (≈ 0.0617 µM) | 0.25 (≈ 0.257 µM) | 0.25 (≈ 0.257 µM) | 8 (≈ 8.23 µM)
6 | CC[C@H]1OC(=O)[C@H](C)[C@@H](OC(=O)N(CC)CC)[C@H](C)[C@@H](O[C@@H]2O[C@H](C)C[C@H](N(C)C)[C@H]2O)[C@](C)(OC(=O)NC/C=C/c2ccc(-c3cccnn3)cc2)C[C@@H](C)C(=O)[C@H](C)[C@H]2NC(=O)O[C@@]21C | 0.5 (≈ 0.534 µM) | 0.06 (≈ 0.064 µM) | 0.25 (≈ 0.267 µM) | 0.12 (≈ 0.128 µM) | 4 (≈ 4.27 µM)
7 | CC[C@H]1OC(=O)[C@H](C)[C@@H](O[C@H]2C[C@@](C)(OC)[C@@H](O)[C@H](C)O2)[C@H](C)[C@@H](O[C@@H]2O[C@H](C)C[C@H](N(C)C)[C@H]2O)[C@](C)(O)C[C@@H](C)C(=O)[C@H](C)[C@@H](O)[C@]1(C)O [ERYTHROMYCIN] | 0.5 (≈ 0.681 µM) | 0.06 (≈ 0.0818 µM) | > 16 | 4 (≈ 5.45 µM) | 8 (≈ 10.9 µM)
8 | CC[C@H]1OC(=O)[C@H](C)[C@@H](OC(=O)C(C)C)[C@H](C)[C@@H](O[C@@H]2O[C@H](C)C[C@H](N(C)C)[C@H]2O)[C@](C)(OC(=O)NC/C=C/c2ccc(-c3cccnn3)cc2)C[C@@H](C)C(=O)[C@H](C)[C@H]2NC(=O)O[C@@]21C | 0.5 (≈ 0.551 µM) | 0.06 (≈ 0.0661 µM) | 0.12 (≈ 0.132 µM) | 0.06 (≈ 0.0661 µM) | 2 (≈ 2.2 µM)
9 | CC[C@H]1OC(=O)[C@H](C)[C@@H](OC(=O)Nc2ccc(OC)cc2)[C@H](C)[C@@H](O[C@@H]2O[C@H](C)C[C@H](N(C)C)[C@H]2O)[C@](C)(OC(=O)NC/C=C/c2ccc(-c3ncccn3)cc2)C[C@@H](C)C(=O)[C@H](C)[C@H]2NC(=O)O[C@@]21C | 1 (≈ 1.01 µM) | 0.12 (≈ 0.122 µM) | 4 (≈ 4.05 µM) | 0.25 (≈ 0.253 µM) | 16 (≈ 16.2 µM)
10 | CC[C@H]1OC(=O)[C@H](C)[C@@H](OC(=O)N(C)C)[C@H](C)[C@@H](O[C@@H]2O[C@H](C)C[C@H](N(C)C)[C@H]2O)[C@](C)(OC(=O)NC/C=C/c2ccc(-c3ncccn3)cc2)C[C@@H](C)C(=O)[C@H](C)[C@H]2NC(=O)O[C@@]21C | 0.25 (≈ 0.275 µM) | 0.03 (≈ 0.033 µM) | 0.25 (≈ 0.275 µM) | 0.06 (≈ 0.066 µM) | 8 (≈ 8.8 µM)
11 | CC[C@H]1OC(=O)[C@H](C)[C@@H](OC(=O)Cc2cccnc2)[C@H](C)[C@@H](O[C@@H]2O[C@H](C)C[C@H](N(C)C)[C@H]2O)[C@](C)(OC(=O)NC/C=C/C=C/c2cccnc2)C[C@@H](C)C(=O)[C@H](C)[C@H]2NC(=O)O[C@@]21C | 0.5 (≈ 0.552 µM) | 0.03 (≈ 0.0331 µM) | 0.12 (≈ 0.132 µM) | 0.12 (≈ 0.132 µM) | 2 (≈ 2.21 µM)
12 | CC[C@H]1OC(=O)[C@H](C)[C@@H](OC(=O)N(CC)CC)[C@H](C)[C@@H](O[C@@H]2O[C@H](C)C[C@H](N(C)C)[C@H]2O)[C@](C)(OC(=O)NC/C=C/c2cnc3ccccc3c2)C[C@@H](C)C(=O)[C@H](C)[C@H]2NC(=O)O[C@@]21C | 0.5 (≈ 0.549 µM) | 0.06 (≈ 0.0659 µM) | 0.12 (≈ 0.132 µM) | 0.06 (≈ 0.0659 µM) | 4 (≈ 4.4 µM)
13 | CC[C@H]1OC(=O)[C@H](C)[C@@H](OC(=O)Cc2cccnc2)[C@H](C)[C@@H](O[C@@H]2O[C@H](C)C[C@H](N(C)C)[C@H]2O)[C@](C)(OC(=O)NC/C=C/c2ccc(-c3ncccn3)cc2)C[C@@H](C)C(=O)[C@H](C)[C@H]2NC(=O)O[C@@]21C | 0.12 (≈ 0.125 µM) | 0.03 (≈ 0.0313 µM) | 0.12 (≈ 0.125 µM) | 0.06 (≈ 0.0627 µM) | 4 (≈ 4.18 µM)
14 | CC[C@H]1OC(=O)[C@H](C)[C@@H](OC(=O)Cc2ccncc2)[C@H](C)[C@@H](O[C@@H]2O[C@H](C)C[C@H](N(C)C)[C@H]2O)[C@](C)(OC(=O)NC/C=C/c2ccc(-c3ncccn3)cc2)C[C@@H](C)C(=O)[C@H](C)[C@H]2NC(=O)O[C@@]21C | 0.25 (≈ 0.261 µM) | 0.03 (≈ 0.0313 µM) | 0.25 (≈ 0.261 µM) | 0.12 (≈ 0.125 µM) | 4 (≈ 4.18 µM)
15 | CC[C@H]1OC(=O)[C@H](C)[C@@H](OC(=O)C(C)C)[C@H](C)[C@@H](O[C@@H]2O[C@H](C)C[C@H](N(C)C)[C@H]2O)[C@](C)(OC(=O)NC/C=C/c2ccc(-c3ncccn3)cc2)C[C@@H](C)C(=O)[C@H](C)[C@H]2NC(=O)O[C@@]21C | 0.5 (≈ 0.551 µM) | 0.06 (≈ 0.0661 µM) | 0.12 (≈ 0.132 µM) | 0.12 (≈ 0.132 µM) | 8 (≈ 8.81 µM)
16 | CC[C@H]1OC(=O)[C@H](C)[C@@H](OC(=O)C(C)C)[C@H](C)[C@@H](O[C@@H]2O[C@H](C)C[C@H](N(C)C)[C@H]2O)[C@](C)(OC(=O)NC/C=C/c2cnc3ccccc3c2)C[C@@H](C)C(=O)[C@H](C)[C@H]2NC(=O)O[C@@]21C | 0.25 (≈ 0.284 µM) | 0.03 (≈ 0.034 µM) | 0.06 (≈ 0.0681 µM) | 0.03 (≈ 0.034 µM) | 4 (≈ 4.54 µM)
17 | CCC(=O)O[C@H]1[C@H](C)[C@@H](O[C@@H]2O[C@H](C)C[C@H](N(C)C)[C@H]2O)[C@](C)(OC(=O)NC/C=C/c2ccc(-c3ncccn3)cc2)C[C@@H](C)C(=O)[C@H](C)[C@H]2NC(=O)O[C@]2(C)[C@@H](CC)OC(=O)[C@@H]1C | 0.5 (≈ 0.559 µM) | 0.03 (≈ 0.0336 µM) | 0.25 (≈ 0.28 µM) | 0.12 (≈ 0.134 µM) | 8 (≈ 8.95 µM)
18 | CC[C@H]1OC(=O)[C@H](C)[C@@H](OC(=O)N(CC)CC)[C@H](C)[C@@H](O[C@@H]2O[C@H](C)C[C@H](N(C)C)[C@H]2O)[C@](C)(OC(=O)NC/C=C/c2ccc(-n3cccn3)cc2)C[C@@H](C)C(=O)[C@H](C)[C@H]2NC(=O)O[C@@]21C | 1 (≈ 1.08 µM) | 0.12 (≈ 0.13 µM) | 0.5 (≈ 0.54 µM) | 0.12 (≈ 0.13 µM) | 4 (≈ 4.32 µM)
19 | CC[C@H]1OC(=O)[C@H](C)[C@@H](OC(=O)Cc2cccnc2)[C@H](C)[C@@H](O[C@@H]2O[C@H](C)C[C@H](N(C)C)[C@H]2O)[C@](C)(OC(=O)NC/C=C/c2cnc3ccccc3c2)C[C@@H](C)C(=O)[C@H](C)[C@H]2NC(=O)O[C@@]21C | 0.5 (≈ 0.538 µM) | 0.06 (≈ 0.0645 µM) | 0.12 (≈ 0.129 µM) | 0.06 (≈ 0.0645 µM) | 4 (≈ 4.3 µM)
20 | CC[C@H]1OC(=O)[C@H](C)[C@@H](OC(=O)N(CC)CC)[C@H](C)[C@@H](O[C@@H]2O[C@H](C)C[C@H](N(C)C)[C@H]2O)[C@](C)(OC(=O)NC/C=C/c2ccc(-c3ncccn3)cc2)C[C@@H](C)C(=O)[C@H](C)[C@H]2NC(=O)O[C@@]21C | 0.5 (≈ 0.534 µM) | 0.06 (≈ 0.064 µM) | 0.12 (≈ 0.128 µM) | 0.06 (≈ 0.064 µM) | 8 (≈ 8.54 µM)
21 | CC[C@H]1OC(=O)[C@H](C)[C@@H](OC(=O)N(CC)Cc2cccnc2)[C@H](C)[C@@H](O[C@@H]2O[C@H](C)C[C@H](N(C)C)[C@H]2O)[C@](C)(OC(=O)NC/C=C/c2ccc(-c3ncccn3)cc2)C[C@@H](C)C(=O)[C@H](C)[C@H]2NC(=O)O[C@@]21C | 0.5 (≈ 0.5 µM) | 0.06 (≈ 0.06 µM) | 0.25 (≈ 0.25 µM) | 0.12 (≈ 0.12 µM) | 16 (≈ 16 µM)
